Laboratory results published in patent US10287617B2, “Methods for in vitro—in vivo efficacy determination” (COLORADO STATE UNIVERSITY RESEARCH FOUNDATION, priority 2014, dated 2019).
In brackets after ≈: the same amount, converted by molar mass. Entries after “also recorded” stand apart in the source; their conditions may differ. Like-named read-outs stand apart in the source and are kept apart here. Marks after values point to notes of the source that are not given here.

Tests used:
[1] = test system: Mycobacteria tuberculosis; assay: MIC and drug response curve type (Tables A and B); type: cell-based, Mycobacterium tuberculosis; settings: for Curve: drug response curve type; for MIC: in µg/mL
Description: A drug concentration response curve can be generated by graphing the log10 drug concentrations (μg/mL) against the difference in growth between the drug-treated wells and control wells. See FIG. 3C, and FIG. 5 (entries for SB-P23D8 and SB-P26D9). A NREBA is indicative of bacteriostatic activity above the MIC.
(§1) Further analysis using the methods described herein was performed on the compounds found in Tables A and B (bold font compounds are shown in FIG. 11) resulting in the data found therein.
MIC values were determined for the benzimidazoles using a modified 96-well microplate Alamar Blue (resazurin) assay (MABA) (see Kumar et al., J. Med. Chem. 2011; 54:374-381; Collins and Franzblau, Antimicrob. Agents Chemother. 1997; 41:1004-1009). Dose response curves were generated from the MABA assay for compounds by graphing the log10 drug concentrations against the difference in growth between the drug-treated wells and control wells using GraphPad Prism Version 5.0d for Mac OS X (GraphPad Software, San Diego Calif., USA, www.graphpad.com). For time dose studies, bacterial growth in the presence of compound was monitored by the O.D. 600 nm. […] The values were plotted against time using GraphPad Prism Version 5.0d for Mac OS X (GraphPad Software, San Diego Calif., USA, www.graphpad.com).

[2] = test system: M. tuberculosis H37Rv; assay: MIC / dose response by modified microplate Alamar Blue assay (MABA); type: cell-based, Mycobacterium tuberculosis; settings: for drug concentration response curve (kill curve) type: FIG. 3; for MIC range: H37Rv and Erdman strains
[3] = test system: M. tuberculosis; assay: Benzimidazoles activity tested in animals (animal models of infection, Table A); type: in vivo, mouse; settings: for Efficacy Lung / Efficacy Spleen: Table A
Description: as §1
Compound efficacy was assessed in two murine models of infection based on the short term model described previously (Lenaerts et al., Antimicrob. Agents Chemother. 2003; 47:783-785). All aerosol infections were performed using a Middlebrook aerosol generation devise (Glas-Col, Terre Haute, Ind.).

[4] = test system: M. tuberculosis H37Rv; type: cell-based; settings: for MIC Alone: drug alone
[5] = test system: M. tuberculosis H37Rv; assay: Growth inhibition / time dose curves (OD600 and CFU); type: cell-based, Mycobacterium tuberculosis; settings: for concentrations at which bacterial growth was inhibited: O.D. 600 nm growth curves, 5 days
[6] = test system: non-replicating M. tuberculosis H37Rv; assay: Low oxygen study, non-replicating bacilli; type: cell-based, Mycobacterium tuberculosis; settings: for Log10 (CFU+/−SD): 96 h post-treatment; for % Growth Reduction: benzimidazoles at 4 μg/mL; for Log10 (CFU) Reduction: vs control
Description: The low oxygen studies were performed similar to those described previously (Lenaerts et al., Antimicrob. Agents Chemother. 2005; 49:2294-2301). Briefly, M. tuberculosis H37Rv were diluted to an O.D. 600 nm of 0.003 in 7H9 media containing Methylene Blue (1.5 μg/mL) and were grown in 16×125 mm Hungate tubes with rubber septa (VWR cat#89167-170). The tubes, with 11 mL of the diluted cultures were incubated at 37° C. under agitation (150 rpm). […] One week after the reduction of methylene blue, approximately 28 days from the start, drug treatment was initiated with the test and control drugs. Prior to treatment, an aliquot was removed and plated for a CFU count to serve as a control. Isoniazid and metronidazole were used in the studies as comparative controls.
Recovery of aliquots for plating and the addition of drugs were conducted through septa using syringes to maintain the low-oxygen conditions. Ninety-six hours post-treatment, 1 mL of the culture was removed from the oxygen depleted cultures, the aliquot was serial diluted and the dilutions were plated. Log10 CFUs were calculated for the different treatments and concentrations. Percentage growth reduction from the controls was calculated and reported.

[7] = test system: M. tuberculosis TN587; assay: microbe, parasite or virus in culture; type: cell-based, Mycobacterium tuberculosis
[8] = test system: M. tuberculosis NHN382; assay: microbe, parasite or virus in culture; type: cell-based, Mycobacterium tuberculosis
[9] = test system: M. tuberculosis W210; assay: microbe, parasite or virus in culture; type: cell-based, Mycobacterium tuberculosis
[10] = test system: M. tuberculosis NHN20; assay: microbe, parasite or virus in culture; type: cell-based, Mycobacterium tuberculosis
[11] = test system: M. tuberculosis Erdman; type: in vivo; settings: 50 mg/kg b.i.d. (Inh q.d.); for Log10CFU Lungs / Log10CFU Spleen: day 15
[12] = test system: Vero cells; assay: Cytotoxicity assay (resazurin, 72 h); type: cell-based
Description: The cytotoxicity assay was performed as described previously^16. Briefly compounds were serially diluted in 96 well plates.

[13] = Oxidative metabolic lability in human liver microsomes; settings: 5 μM, 1 mg/mL microsomal protein, 20 min
Description: (§2) Microsomal fractions were prepared in the Drug Disposition Domain at DSAR Montpellier (371 rue du Pr. J. Blayac, 34184 Montpellier Cedex 04, France). […] The flavin-containing monooxygenases (FMO)-dependent reactions were run in the presence of bovine serum albumin (BSA, 0.1%) for the duration of 0 and 20 min (with or without microsomal proteins and/or cofactors). […] Following protein precipitation with acetonitrile and their removal by centrifugation, supernatant fluids were analyzed by LC/MS-MS.
(§3) Thermo Finnigan TSQ Quantum Ultra instrument, ESI positive ion ionization mode. Each compound is studied in duplicates. Results are expressed in percentage of lability (or total metabolism). Total metabolism=[1−(UC_Peak Area+Cofactor at T20)/(UC_Peak Area Reference at T0)]×100
(§4) The reactions were prepared as described and were run in the presence of bovine scrum albumin (BSA, 0.1%) for the duration of 0 and 20 min (with or without microsomal proteins and/or cofactors). Enzyme activity was stopped, the protein was precipitated and removed by centrifugation. The supernatant fluids were analyzed by LC/MS-MS. […] A Thermo Finnigan TSQ Quantum Ultra instrument, ESI positive ion ionization mode was used for MS/MS. Each compound was studied in duplicates. Results are expressed in percentage of lability (or total metabolism) using the following formula: Total metabolism=[1−(UC_Peak Area+Cofactor at T20)/(UC_Peak Area Reference at T0)]×100 where UC=Unchanged Compound; “Reference” sample was NADPH for liver microsomal preparation.

[14] = Oxidative metabolic lability in mouse liver microsomes; settings: 5 μM, 1 mg/mL microsomal protein, 20 min
Description: as §2, §3, §4

CCCOCC(=O)Nc1cc2nc(C3CCCCC3)[nH]c2cc1N1CCCC1 [SB-P6B-A3]
Curve ([1]; Table B): Zonal
MIC ([1]; Table B): 12.5

CCN(CC)c1cc2[nH]c(C3CCCCC3)nc2cc1NC(=O)c1ccc(N(C)C)cc1 [SB-P1G-A11]
Curve ([1]; Table B): Zonal
MIC ([1]; Table B): 12.5

CN(C)c1cc2[nH]c(C3CCCCC3)nc2cc1NC(=O)OCc1ccccc1 [SB-P17G-C4]
Curve ([1]; Table B): Zonal
MIC ([1]; Table B): 12.5

CC(C)(C)c1ccc(C(=O)Nc2cc3nc(C4CCCCC4)[nH]c3cc2SCc2ccccc2)cc1 [SB-P26H8]
Curve ([1]; Table B): Zonal
MIC ([1]; Table B): 25

CCCN(CCC)c1cc2[nH]c(C3CCCCC3)nc2cc1NC(=O)OCCOCC [SB-oli-C8]
Curve ([1]; Table B): Zonal
MIC ([1]; Table B): 6.25

CCCCOC(=O)Nc1cc2nc(C3CCCCC3)[nH]c2cc1N1CCCC1 [SB-P8B2]
drug concentration response curve (kill curve) type [2]: sigmoidal kill curves
MIC range [2]: 0.39 to 0.78 µg/mL
Curve ([1]; Table A): Sigmoid
MIC ([1]; Table A): .625
Efficacy Lung [3]: Yes (.243)
Efficacy Spleen [3]: No
MIC In Combination ([4]; SB-P8B2 with rifampicin): 0.1 × MIC
enhancement of activity in the presence of the other drug ([4]; SB-P8B2 with rifampicin): 8 fold
ΣFIC ([4]; SB-P8B2 with rifampicin): 0.63
MIC Alone [4]: 1 × MIC
concentrations at which bacterial growth was inhibited [5]: > 0.31 µg/mL
Log10 (CFU+/−SD) [6]: 4.96 ± 0.18
% Growth Reduction [6]: 59%
Log10 (CFU) Reduction [6]: 0.39

O=C(Nc1cc2nc(C3CCCCC3)[nH]c2cc1N1CCCC1)OCc1ccccc1 [SBP8B4]
Curve ([1]; Table A): Sigmoid
MIC ([1]; Table A): 3.13
Efficacy Lung [3]: None
Efficacy Spleen [3]: None

COc1ccc(C(=O)Nc2cc3nc(C4CCCCC4)[nH]c3cc2Oc2ccc(F)cc2)cc1 [SB-P23D8]
Curve ([1]; Table B): Zonal
MIC ([1]; Table B): 3.13

Cc1ccc(C(=O)Nc2cc3nc(C4CCCCC4)[nH]c3cc2Sc2ccccc2)cc1 [SB-P26F9]
Curve ([1]; Table B): Zonal
MIC ([1]; Table B): 6.25

CCN(CC)c1cc2[nH]c(C3CCCCC3)nc2cc1NC(=O)c1ccc(OC)cc1.O=C(O)/C=C/C(=O)O [SB-P1G10-FUM]
Curve ([1]; Table B): Zonal
MIC ([1]; Table B): 6.25

Cc1ccc(C(=O)Nc2cc3nc(Cc4ccccc4)[nH]c3cc2N(C)C)cc1 [SB-P27A9]
Curve ([1]; Table B): Zonal
MIC ([1]; Table B): 12.5

CCN(CC)c1cc2[nH]c(C3CCCCC3)nc2cc1NC(=O)c1ccc(OC)cc1 [SB-P1G10]
drug concentration response curve (kill curve) type [2]: narrow range of concentrations of effective bactericidal activity (NREBA) kill curve
MIC range [2]: 3 to 6.25 µg/mL
concentration range of bactericidal activity ([2]; drug concentration response curve): 0.5-4 fold of MIC
Curve ([1]; Table A): Zonal
MIC ([1]; Table A): 3.13-6.25
Efficacy Lung [3]: No
Efficacy Spleen [3]: No
bacterial load in the lungs or spleen ([3]; any animal model of infection conducted): never reduced the bacterial load
concentrations at which bacterial growth was inhibited [5]: none of the concentrations tested

CN(C)c1cc2[nH]c(C3CCCCC3)nc2cc1NC(=O)c1ccc(OC(F)(F)F)c(F)c1F [SB-P17G-A33]
MIC ([2]; H37Rv): 0.39 ± 0.16 µg/mL (≈ 0.808 µM)
MIC [7]: 0.31 ± 0 µg/mL (≈ 0.643 µM)
MIC [8]: 0.37 ± 0.24 µg/mL (≈ 0.767 µM)
MIC [9]: 0.47 ± 0.22 µg/mL (≈ 0.974 µM)
MIC [10]: 0.39 ± 0.33 µg/mL (≈ 0.808 µM)
Curve ([1]; Table A): Sigmoid
MIC ([1]; Table A): .5-.625
Efficacy Lung [3]: Yes
Efficacy Spleen [3]: Yes
reduction in number of viable bacteria ([5]; 1×MIC, day 2): 0.8-1.7 Log10 CFU
Δ Lungs (difference between means of Test and Control Groups) ([11]; IP): −2.10** Log10 CFU
Δ Spleen (difference between means of Test and Control Groups) ([11]; IP): −3.36*** Log10 CFU
Log10CFU Lungs ([11]; IP): 4.59 ± 0.71 Log10 CFU
Log10CFU Spleen ([11]; IP): 1.60 ± .0 Log10 CFU
Δ Lungs (difference between means of Test and Control Groups) ([11]; PO): −1.72*** Log10 CFU
Δ Spleen (difference between means of Test and Control Groups) ([11]; PO): −2.49*** Log10 CFU
Log10CFU Lungs ([11]; PO): 4.58 ± 0.21 Log10 CFU
Log10CFU Spleen ([11]; PO): 1.40 ± 1.24 Log10 CFU
Vero Cells (cytotoxicity IC50) ([12]; 72 h): >200 µg/mL
cytotoxicity in Vero cells ([12]; at 200 μg/mL): not cytotoxic; also recorded: non-toxic
Liver Microsome Lability Human [13]: 5%
Liver Microsome Lability Mouse [14]: 17%

Cc1ncc([N+](=O)[O-])n1CCO [Metronidazole, reference compound]
Log10 (CFU+/−SD) [6]: 4.83 ± 0.06
% Growth Reduction [6]: 70%
Log10 (CFU) Reduction [6]: 0.52

CC(C)(C)c1ccc(C(=O)Nc2cc3nc(C4CCCCC4)[nH]c3cc2Sc2ccccc2)cc1 [SB-P26F8]
Curve ([1]; Table B): Zonal
MIC ([1]; Table B): 25

C=Cc1cccc(C(=O)Nc2cc3nc(C4CCCCC4)[nH]c3cc2N(CC)CC)c1 [SB-P1G-A21]
Curve ([1]; Table B): Zonal
MIC ([1]; Table B): 25

COc1ccc(C(=O)Nc2cc3nc(C4CCCCC4)[nH]c3cc2N(C)C)cc1 [SB-P17G-A16]
Curve ([1]; Table A): Sigmoid
MIC ([1]; Table A): .31
Efficacy Lung [3]: Yes
Efficacy Spleen [3]: Yes

CCC(CC)c1nc2cc(NC(=O)c3ccccc3OC)c(N(C)C)cc2[nH]1 [SB-P27C7]
Curve ([1]; Table B): Zonal
MIC ([1]; Table B): 6.25

CCN(CC)c1cc2[nH]c(C3CCCCC3)nc2cc1NC(=O)c1cnccn1 [SB-P1G-A12]
Curve ([1]; Table B): Zonal
MIC ([1]; Table B): 12.5

CO[C@H]1/C=C/O[C@@]2(C)Oc3c(C)c(O)c4c(O)c(c(/C=N/N5CCN(C)CC5)c(O)c4c3C2=O)NC(=O)/C(C)=C\C=C\[C@H](C)[C@H](O)[C@@H](C)[C@@H](O)[C@@H](C)[C@H](OC(C)=O)[C@@H]1C [Rifampicin, reference compound]
MIC In Combination ([4]; SB-P8B2 with rifampicin): 0.5 × MIC
MIC Alone [4]: 1 × MIC

CCc1ccc(C(=O)Nc2cc3nc(C4CCCCC4)[nH]c3cc2N(CC)CC)cc1 [SB-P1G-A17]
Curve ([1]; Table B): Zonal
MIC ([1]; Table B): 1.56

Cc1ccc(C(=O)Nc2cc3nc(C4CCCCC4)[nH]c3cc2Oc2ccc(F)cc2)cc1 [SB-P26D9]
Curve ([1]; Table B): Zonal
MIC ([1]; Table B): 1.56
